Test results published in ChEMBL document CHEMBL1201862, “PubChem BioAssay data set” (2004).
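Interpolation was linear, between the two tested concentrations surrounding the appropriate level; five concentrations were tested over 48 hours in 96-well plates. GI50: concentration for 50% inhibition of growth.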 Active and inactive are the calls of the source. No stated cut-off is given here; in the data, active = GI50 up to about 1.1 µM and inactive = higher.

Key:
Experiment in all cases: DTP human tumour cell line panel, 48 h
[1] = tested on: SK-OV-3
[2] = tested on: HL-60
[3] = tested on: A498
[4] = tested on: SK-MEL-2
[5] = tested on: MOLT-4
[6] = tested on: NCI-H226
[7] = tested on: SNB-75
[8] = tested on: CAKI-1
[9] = tested on: BT-549
[10] = tested on: UO-31
[11] = tested on: A549
[12] = tested on: SNB-19
[13] = tested on: RXF 393
[14] = tested on: KM12
[15] = tested on: MCF7
[16] = tested on: Hs-578T
[17] = tested on: COLO 205
[18] = tested on: ACHN
[19] = tested on: SR
[20] = tested on: OVCAR-8
[21] = tested on: CCRF-CEM
[22] = tested on: EKVX
[23] = tested on: LOX IMVI
[24] = tested on: HOP-62
[25] = tested on: UACC-62
[26] = tested on: IGROV-1
[27] = tested on: HCT-116
[28] = tested on: Malme-3M
[29] = tested on: U-251
[30] = tested on: OVCAR-5
[31] = tested on: RPMI-8226
[32] = tested on: T47D
[33] = tested on: NCI-H522
[34] = tested on: SK-MEL-28
[35] = tested on: NCI/ADR-RES
[36] = tested on: SF-539
[37] = tested on: SK-MEL-5
[38] = tested on: HCT-15
[39] = tested on: PC-3
[40] = tested on: SN12C
[41] = tested on: SW-620
[42] = tested on: TK-10
[43] = tested on: MDA-MB-435
[44] = tested on: NCI-H23
[45] = tested on: HT-29
[46] = tested on: SF-268
[47] = tested on: MDA-MB-231
[48] = tested on: DU-145
[49] = tested on: K562
[50] = tested on: M14
[51] = tested on: UACC-257
[52] = tested on: 786-0
[53] = tested on: HCC 2998
[54] = tested on: SF-295
[55] = tested on: OVCAR-3
[56] = tested on: OVCAR-4
[57] = tested on: HOP-92
[58] = tested on: NCI-H460
[59] = tested on: MDA-N

Measured: GI50

Cc1nc(-[n+]2nc(-c3ccncc3)nn2-c2ccccc2)sc1C
inactive: [1] 21.2 µM | [2] 57.5 µM | [3] 92.7 µM | [4] > 100 µM | [5] 4.72 µM | [6] 32.1 µM | [7] 42.9 µM | [8] 19.1 µM | [9] 17.1 µM | [10] 7.73 µM | [11] 30.3 µM | [12] 35.9 µM | [13] 18.7 µM | [14] 36.9 µM | [15] 18.6 µM | [16] 44.4 µM | [17] 34.4 µM | [18] 4.8 µM | [19] > 100 µM | [20] 42.9 µM | [21] 17.5 µM | [22] 27.2 µM | [23] 2.69 µM | [24] 7.96 µM | [25] 8.36 µM | [26] 5.01 µM | [27] 13.4 µM | [28] > 100 µM | [29] 29.4 µM | [30] 44.6 µM | [31] 68.1 µM | [32] 39.4 µM | [33] 3.15 µM | [34] 34.5 µM | [35] 84.5 µM | [36] 8.53 µM | [37] 29.4 µM | [39] 15.5 µM | [40] 49.4 µM | [41] 20.2 µM | [42] 21.8 µM | [43] 23.4 µM | [44] 57.9 µM | [45] 55.1 µM | [46] 21.4 µM | [47] 32.1 µM | [48] 36.2 µM | [49] 4.91 µM | [50] 49.3 µM | [51] 26.7 µM | [52] 19.1 µM | [53] > 100 µM | [54] 9.93 µM
16.4 µM: [38]

N=c1oc2ccccc2cc1C(=O)Nc1nccs1
active: [2] 0.91 µM | [10] 0.031 µM | [33] 0.647 µM
24.8 µM: [38]
inactive: [1] 7.78 µM | [3] 45.7 µM | [4] 26.9 µM | [5] 4.8 µM | [6] 19.7 µM | [7] 35.6 µM | [8] 13.4 µM | [9] 39.5 µM | [11] 44.6 µM | [12] 52.2 µM | [13] 17.5 µM | [14] 34.3 µM | [15] 5.7 µM | [16] 46.3 µM | [17] 14.6 µM | [18] 4.54 µM | [19] 3.24 µM | [20] 16.8 µM | [21] 2.79 µM | [22] 25.1 µM | [23] 2.33 µM | [24] 18.8 µM | [25] 32.2 µM | [26] 8.26 µM | [27] 26.8 µM | [28] 35.6 µM | [55] 9.31 µM | [29] 33 µM | [30] > 69.3 µM | [31] 14.1 µM | [32] 14.1 µM | [56] 20.5 µM | [34] 44.5 µM | [35] 19.7 µM | [36] 5.75 µM | [37] 31 µM | [57] 32.5 µM | [39] 34.5 µM | [58] 26.7 µM | [40] 46.9 µM | [41] 19.9 µM | [42] 7.85 µM | [43] 25.8 µM | [44] 35.8 µM | [45] 46.6 µM | [46] 47.3 µM | [47] 33.7 µM | [48] 20.9 µM | [49] 13.9 µM | [50] 19 µM | [51] 27 µM | [52] 2.37 µM | [53] 35.2 µM | [54] 35.6 µM

COC(=O)C12C(=O)CC3CCC1C32C(=O)OC (stereo unspecified)
inactive: [1] > 100 µM | [4] > 100 µM | [5] > 100 µM | [6] > 100 µM | [7] > 100 µM | [8] > 100 µM | [9] > 100 µM | [10] > 100 µM | [11] > 100 µM | [12] > 100 µM | [13] > 100 µM | [14] > 100 µM | [15] > 100 µM | [17] > 100 µM | [18] > 100 µM | [19] > 100 µM | [20] > 100 µM | [21] > 100 µM | [22] > 100 µM | [23] > 100 µM | [24] > 100 µM | [25] > 100 µM | [26] > 100 µM | [27] > 100 µM | [28] > 100 µM | [55] > 100 µM | [29] > 100 µM | [30] > 100 µM | [31] > 100 µM | [56] > 100 µM | [33] > 100 µM | [34] > 100 µM | [35] > 100 µM | [36] > 100 µM | [37] > 100 µM | [39] > 100 µM | [58] > 100 µM | [40] > 100 µM | [41] > 100 µM | [42] > 100 µM | [43] > 100 µM | [44] > 100 µM | [45] > 100 µM | [46] > 100 µM | [47] > 100 µM | [59] > 100 µM | [48] > 100 µM | [49] > 100 µM | [50] > 100 µM | [51] > 100 µM | [52] > 100 µM | [53] > 100 µM | [54] > 100 µM
> 100 µM: [38]
